Assay results from ChEMBL document CHEMBL3817786, “An Unusual Natural Product Primary Sulfonamide: Synthesis, Carbonic Anhydrase Inhibition, and Protein X-ray Structures of Psammaplin C” (J Med Chem, 2016).

Columns and labels:
Carbonic anhydrase 4 = Carbonic anhydrase 4 (Homo sapiens, UniProt P22748); assay: Inhibition of human recombinant carbonic anhydrase 4 expressed in Escherichia coli BL21 (DE3) by stopped-flow CO2 hydration assay
[1] = target: Carbonic anhydrase 5A, mitochondrial (Homo sapiens, UniProt P35218); assay: Inhibition of human recombinant carbonic anhydrase 5A expressed in Escherichia coli BL21 (DE3) by stopped-flow CO2 hydration assay
Carbonic anhydrase 5A, mitochondrial, sequence (P35218 whole entry): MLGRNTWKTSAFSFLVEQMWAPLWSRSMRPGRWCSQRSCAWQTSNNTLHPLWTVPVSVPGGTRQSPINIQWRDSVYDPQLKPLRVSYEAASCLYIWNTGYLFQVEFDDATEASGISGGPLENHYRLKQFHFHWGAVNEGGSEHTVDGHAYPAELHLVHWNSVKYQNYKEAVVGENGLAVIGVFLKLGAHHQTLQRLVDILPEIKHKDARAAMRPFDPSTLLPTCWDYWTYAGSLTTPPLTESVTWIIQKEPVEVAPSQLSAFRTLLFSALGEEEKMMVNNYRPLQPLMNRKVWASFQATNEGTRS

Carbonic anhydrase 6 = Carbonic anhydrase 6 (Homo sapiens, UniProt P23280); assay: Inhibition of human recombinant carbonic anhydrase 6 expressed in Escherichia coli BL21 (DE3) by stopped-flow CO2 hydration assay
Carbonic anhydrase 6, sequence (P23280 whole entry): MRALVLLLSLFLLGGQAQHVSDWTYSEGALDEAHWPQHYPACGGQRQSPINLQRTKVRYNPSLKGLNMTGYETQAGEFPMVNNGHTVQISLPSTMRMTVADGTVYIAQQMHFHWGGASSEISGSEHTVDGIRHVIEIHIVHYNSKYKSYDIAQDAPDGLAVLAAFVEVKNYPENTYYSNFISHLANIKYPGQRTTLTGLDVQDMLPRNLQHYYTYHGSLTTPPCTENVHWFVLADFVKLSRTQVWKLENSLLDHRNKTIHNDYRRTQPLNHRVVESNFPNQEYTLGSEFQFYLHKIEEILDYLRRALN

Carbonic anhydrase 7 = Carbonic anhydrase 7 (Homo sapiens, UniProt P43166); assay: Inhibition of human recombinant carbonic anhydrase 7 expressed in Escherichia coli BL21 (DE3) by stopped-flow CO2 hydration assay
Carbonic anhydrase 7, sequence (P43166 whole entry): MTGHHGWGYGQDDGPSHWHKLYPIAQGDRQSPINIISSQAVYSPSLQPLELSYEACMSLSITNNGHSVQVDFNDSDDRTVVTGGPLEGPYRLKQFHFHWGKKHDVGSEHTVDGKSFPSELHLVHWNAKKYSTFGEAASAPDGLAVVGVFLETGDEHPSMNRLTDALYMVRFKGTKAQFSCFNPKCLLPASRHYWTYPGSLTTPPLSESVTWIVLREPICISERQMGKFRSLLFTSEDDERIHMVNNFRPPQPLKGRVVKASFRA

Carbonic anhydrase 13 = Carbonic anhydrase 13 (Homo sapiens, UniProt Q8N1Q1); assay: Inhibition of human recombinant carbonic anhydrase 13 expressed in Escherichia coli BL21 (DE3) by stopped-flow CO2 hydration assay
Carbonic anhydrase 13, sequence (Q8N1Q1 whole entry): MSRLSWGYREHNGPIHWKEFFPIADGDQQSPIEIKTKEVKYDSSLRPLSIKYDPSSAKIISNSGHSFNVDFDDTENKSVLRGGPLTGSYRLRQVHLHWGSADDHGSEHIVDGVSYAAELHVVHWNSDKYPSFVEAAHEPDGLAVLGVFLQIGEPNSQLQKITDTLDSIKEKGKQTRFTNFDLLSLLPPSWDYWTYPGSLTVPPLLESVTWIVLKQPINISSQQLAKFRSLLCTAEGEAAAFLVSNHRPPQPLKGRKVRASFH

Carbonic anhydrase 14 = Carbonic anhydrase 14 (Homo sapiens, UniProt Q9ULX7); assay: Inhibition of human recombinant carbonic anhydrase 14 expressed in Escherichia coli BL21 (DE3) by stopped-flow CO2 hydration assay
Carbonic anhydrase 14, sequence (Q9ULX7 whole entry): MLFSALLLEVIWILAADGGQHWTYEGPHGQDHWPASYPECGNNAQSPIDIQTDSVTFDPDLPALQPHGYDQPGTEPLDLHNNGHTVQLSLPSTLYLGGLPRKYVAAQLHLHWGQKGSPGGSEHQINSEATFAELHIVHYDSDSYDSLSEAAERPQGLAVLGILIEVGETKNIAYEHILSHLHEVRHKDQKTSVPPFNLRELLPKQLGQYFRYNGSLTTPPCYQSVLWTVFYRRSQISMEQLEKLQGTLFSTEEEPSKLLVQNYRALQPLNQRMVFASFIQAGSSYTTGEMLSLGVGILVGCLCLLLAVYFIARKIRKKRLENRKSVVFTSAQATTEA

Carbonic anhydrase 4, sequence (P22748 whole entry): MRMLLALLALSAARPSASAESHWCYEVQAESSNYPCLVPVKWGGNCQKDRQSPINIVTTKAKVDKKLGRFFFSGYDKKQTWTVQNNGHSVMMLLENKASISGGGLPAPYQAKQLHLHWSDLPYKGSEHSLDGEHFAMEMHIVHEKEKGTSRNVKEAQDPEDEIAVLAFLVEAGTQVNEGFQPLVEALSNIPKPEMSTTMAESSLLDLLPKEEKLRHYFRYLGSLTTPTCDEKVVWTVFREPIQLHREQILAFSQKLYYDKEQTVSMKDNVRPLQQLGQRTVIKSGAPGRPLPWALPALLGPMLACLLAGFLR

NS(=O)(=O)CCNC(=O)/C(Cc1ccc(O)c(Br)c1)=N/O
Ki (Carbonic anhydrase 4): 75.3 nM | Ki [1]: 154 nM | Ki (Carbonic anhydrase 6): 9.68 µM | Ki (Carbonic anhydrase 7): 1.7 nM | Ki (Carbonic anhydrase 13): 10.6 µM | Ki (Carbonic anhydrase 14): 379 nM
